{"source": "patent US20160095837A1", "about": "“MODULATION OF MITOCHONDRIAL CALCIUM UNIPORTER ACTIVITY FOR TREATING AND PREVENTING ARRHYTHMIAS” (priority 2014, published 2016)", "key": {"[1]": {"system": "SERCA2a activity ([Ca2+]cyto decline)", "experiment": "Cytoplasmic Ca2+ transient decay (Fura-2 AM) in SAN cells", "assay_type": "cell-based, mouse", "conditions": "Ru360 dialysis", "experimental": "(§1) SAN cells were placed in Tyrode's solution at 36±0.5° C. and were identified by their characteristic morphology (spindle or spider shape) and spontaneous activity. SAN cells were identified electrophysiologically by spontaneous action potentials with a slow depolarizing phase 4 and the hyperpolarization-activated current (If).^27 Spontaneous action potentials, If and ICa were recorded using the perforated (amphotericin B or β-escin in studies requiring dialysis of Ru360 and/or ATP) patch-clamp technique^28 on single SAN cells at 36±0.5° C. in Tyrode's solution. Intracellular Ca^2+ transients were recorded from single SAN cells using Fura-2 AM excited at 340 nm and 380 nm and emitted and 510 nm. Endogenous NADH from single SAN cells was measured by excitation at 350 nm and recording emitted light at 460 nm.^29 Mitochondrial Ca^2+ was measured at 535 nm from mt-pericam expressing SAN cells exited at 415 nm^20. Mitochondrial Ca^2+ entry was measured in cell membrane permeabilized cardiomyocytes isolated from DN-MCU transgenic, wild type mice and from HEK293 cells using Calcium green-5N^30.\nCytosolic Ca^2+ levels were recorded from Fura-2-loaded cells, excited at wavelengths of 340 and 380 nm, and imaged with a 510 nm long-pass filter. Single isolated SAN cells were loaded with 0.1 μM Fura-2 AM for 20 minutes, and then perfused for 20 minutes to de-esterfy the Fura-2 AM in normal Tyrode's solution. After placement on a recording chamber, the cells were perfused in normal Tyrode's solution at 36° C.±0.5. Spindle-shaped, spontaneously beating cells were chosen for experiments. Action potential recording was performed simultaneously."}, "[2]": {"system": "mitochondrial Ca2+ concentration ([Ca2+]mito)", "experiment": "Mitochondrial Ca2+ measurement with mt-pericam in cultured SAN cells", "assay_type": "cell-based, mouse", "conditions": "Ru360 dialysis", "experimental": "as §1\nFreshly isolated mouse SAN tissue was cut into small pieces and put into 35 mm tissue culture plates with DMEM. […] Expression of the recombinant ratio-5mt-pericam and DN-MCU in SAN cells was detected by GFP fluorescence. […]"}, "[3]": {"system": "other cellular Ca2+ transport processes involved in cardiac muscle contraction", "conditions": "even at micromolar levels; cited from earlier work"}}}
{"substance": "(μ)[(HCO2)(NH3)4Ru]2OCl3) [Ru360]", "values": [{"measurement": "Decline in [Ca2+]cyto after ISO", "setting": "[1]; ISO stimulated", "value": "slowed"}, {"measurement": "Decline in [Ca2+]cyto in the absence of ISO stimulation", "setting": "[1]; no ISO", "value": "did not slow"}, {"measurement": "ISO-induced increase in [Ca2+]mito", "setting": "[2]", "value": "prevented"}, {"measurement": "Effect on other cellular Ca2+ transport processes involved in cardiac muscle contraction", "setting": "[3]", "value": "does not affect"}]}
